According to patent US20080118434A1 (The Board of the Trustees of The Leland Stanford J, priority 2003, published 2008):

Assays:
[1] = tested on: hippocampal genes (mRNA levels); test: Microarray analysis (GeneChip Rat Neurobiology U34) of gene expression in hippocampus of rats treated chronically with antidepressants; assay type: in vivo; conditions: for hippocampal genes commonly regulated by fluoxetine and desipramine (list: Glutathione peroxidase 1 ... Insulin like growth factor II, Somatostatin): 10 mg/kg/d each; for hippocampal genes commonly regulated by fluoxetine and desipramine (list: Glutathione peroxidase 1 ... Insulin like growth factor II, Somatostatin) / hippocampal genes commonly regulated by desipramine and bupropion (list: NG,NG dimethylarginine dimethylaminohydrolase ... Retina S-antigen) / hippocampal genes commonly regulated by fluoxetine and bupropion (list: Transferrin ... Carbonic anhydrase 2): i.p., four weeks, vs saline; for hippocampal genes commonly regulated by fluoxetine and desipramine (list: Glutathione peroxidase 1 ... Insulin like growth factor II, Somatostatin) / hippocampal genes commonly regulated by desipramine and bupropion (list: NG,NG dimethylarginine dimethylaminohydrolase ... Retina S-antigen): >20% fold change, p<0.05; for hippocampal genes commonly regulated by desipramine and bupropion (list: NG,NG dimethylarginine dimethylaminohydrolase ... Retina S-antigen): desipramine 10 mg/kg/d; for hippocampal genes commonly regulated by desipramine and bupropion (list: NG,NG dimethylarginine dimethylaminohydrolase ... Retina S-antigen) / hippocampal genes commonly regulated by fluoxetine and bupropion (list: Transferrin ... Carbonic anhydrase 2): bupropion 20 mg/kg/day; for hippocampal genes commonly regulated by fluoxetine and bupropion (list: Transferrin ... Carbonic anhydrase 2): fluoxetine 10 mg/kg/d, selected results confirmed by real time RT-PCR
Experimental: (§1) Adult Sprague-Dawley male rats (250-300 g) were assigned to one of the following four groups (n=10 per group): 1. Saline injected animals (controls). 2. Bupropion treated animals. 3. Desipramine treated animals, and 4. Fluoxetine treated animals. Bupropion (20 mg/kg/day), Desipramine (10 mg/kg/d), Fluoxetine (10 mg/kg/d) and Saline were injected twice daily intraperitoneal (i.p.) for four weeks. Animals were sacrificed in the AM, the day after the last injection. Brains were obtained by rapid decapitation, and processed for gene array analysis (GAA), RT-PCR and in situ hybridization.
(§2) Four brains from each group were used for GAA, and real time RT-PCR confirmation. The remaining six brains were sectioned for in situ hybridization confirmation of the gene array analysis.
(§3) Array analysis was done using GeneChip® Rat Neurobiology U34 Arrays (Affymetrix). Whole hippocampus were dissected and total RNA samples were extracted using standard methods (Trizol, Invitrogen; Quigen Rneasy Mini Kit). Total RNA from each of the experimental groups were pooled. The column purified total RNA (10 μg) was converted to biotinylated cRNA hybridization probe following the manufacturers protocol. Labeled cRNA (30 ug) was fragmented in fragmentation buffer, and 15 ug were hybridized to the oligonucletide microarray in 300 μl of hybridization solution.
(§4) Samples from each group were run in independently labeled triplicates. The raw intensity data was analyzed with dCHIP software (Li and Wong, 2002).
Using a criteria of greater than 20% fold change (90% lower bound confidence limit) and a t-test value yielding a probability of p<0.05, we found 28 genes that were regulated by all three antidepressants compared to saline treatment. Nine of these genes were ESTs.
Regulation of these genes can conveniently be confirmed by Real Time RT-PCR, and in situ hybridization. Regulation of two of the genes has been confirmed by RT-PCR.

[2] = tested on: hypothalamic genes (mRNA levels); test: Microarray analysis of gene expression in hypothalamus of rats treated chronically with antidepressants; assay type: in vivo, rat; conditions: rats treated with fluoxetine, bupropion and/or desipramine; i.p. twice daily for four weeks
Text: Membrane microarray analysis was used to compare expression levels of over 8,000 genes in the hypothalamus of rats treated chronically with a specific serotonin reuptake inhibitor (i.e., fluoxetine), a tricyclic antidepressant (i.e., desipramine), and a dopamine reuptake inhibitor (i.e., bupropion).
as §1, §2, §3, §4
Genes were identified using a criteria of greater than 20% fold change (90% lower bound confidence limit) and a t-test value yielding a probability of p<0.05.
The microarray analysis results were confirmed by in situ hybridization.

[3] = rats treated with desipramine and/or bupropion
[4] = rats treated with fluoxetine and/or desipramine
[5] = rats treated with fluoxetine, bupropion and/or desipramine, i.p. twice daily for four weeks
[6] = rats treated with bupropion and/or fluoxetine

Row | Structure (SMILES) | hippocampal genes commonly regulated by fluoxetine and desipramine (list: Glutathione peroxidase 1 ... Insulin like growth factor II, Somatostatin) [1] | hippocampal genes commonly regulated by desipramine and bupropion (list: NG,NG dimethylarginine dimethylaminohydrolase ... Retina S-antigen) [1] | number of hippocampal genes with altered mRNA levels [1, 3] | number of hippocampal genes with altered mRNA levels [1, 4] | number of hippocampal genes with altered mRNA levels [1, 5] | number of hypothalamic genes with altered mRNA levels [2] | hippocampal genes commonly regulated by fluoxetine and bupropion (list: Transferrin ... Carbonic anhydrase 2) [1] | number of hippocampal genes with altered mRNA levels [1, 6]
1 | CNCCCN1c2ccccc2CCc2ccccc21 [desipramine] | commonly regulated | commonly regulated | 46 | 33 | 18 | 3 |  | 
2 | CNCCC(Oc1ccc(C(F)(F)F)cc1)c1ccccc1 (stereo not drawn) [fluoxetine] | commonly regulated |  |  | 33 | 18 | 3 | commonly regulated | 11
3 | CC(NC(C)(C)C)C(=O)c1cccc(Cl)c1 (stereo not drawn) [bupropion] |  | commonly regulated | 46 |  | 18 | 3 | commonly regulated | 11
